Assay results published in patent US20060069132A1, “Azolecarboxamide herbicides” (priority 2004, published 2006).

Legend:
lambsquarters = test: Test B pre-/postemergence herbicide test; type: in vivo, Chenopodium album
Method in brief: (§1)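 Herbicidal effect was judged by eye on a 0–100 scale after plants stood 13 to 15 days in the greenhouse following pre- or postemergence treatment with surfactant-containing formulations.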

rice [1] = test: Test B pre-/postemergence herbicide test; type: in vivo, Oryza sativa; conditions: preemergence, 125 g ai/ha; 0 to 100 scale, 0 is no effect, 100 is complete control
Source text: Seeds selected from barnyardgrass (Echinochloa crus-galli (L.) Beauv.), Surinam grass (Urochloa decumbens (Staph) R. D. Webster, previously named Brachiaria decumbens Stapf), cocklebur (Xanthium strumarium L.), corn (Zea mays L.), large crabgrass (Digitaria sanguinalis (L.) Scop.), giant foxtail (Setaria faberi Herim.), lambsquarters (Chenopodium album L.), morningglory (Ipomoea coccinea L.), pigweed (Amaranthus retroflexus L.), rice (Oryza sativa L.) and velvetleaf (Abutilon theophrasti Medik.) were planted and treated preemergence with test chemicals formulated in a non-phytotoxic solvent mixture which included a surfactant.
At the same time, plants selected from these crop and weed species and also blackgrass (Alopecurus myosuroides Huds.), wheat (Triticum aestivum L.) and wild oat (Avena fatua L.) were treated with postemergence applications of test chemicals formulated in the same manner. Plants ranged in height from 2 to 18 cm (1- to 4-leaf stage) for postemergence treatments. Plant species in the flooded paddy test consisted of rice (Oryza sativa L.), small flower umbrella sedge (Cyperus difformis L.), ducksalad (Heteranthera limosa (Sw.) Willd.) and barnyardgrass (Echinochloa crus-galli (L.) Beauv.) grown to the 2-leaf stage for testing. Treated plants and controls were maintained in a greenhouse for 13 to 15 days, after which time all species were compared to controls and visually evaluated. Plant response ratings, summarized in Table B, are based on a scale of 0 to 100 where 0 is no effect and 100 is complete control. A dash (-) response means no test result.

wheat = test: Test B postemergence herbicide test; type: in vivo, Triticum aestivum; parameters: key to Wheat plant response rating: 0 = no effect, 100 = complete control; conditions: scale 0 (no effect) to 100 (complete control)
Method in brief: (§2)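 Scale 0–100: zero equals no visible effect, 100 complete control, judged by eye relative to controls. Timing: 13 to 15 days in greenhouse post-treatment. Growth stage at spraying: two leaves (paddy) or one to four leaves, 2–18 cm (postemergence).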

wild oat = test: Test B postemergence herbicide test; type: in vivo, Avena fatua; conditions: scale 0 (no effect) to 100 (complete control)
Method in brief: as §2

large crabgrass = test: Test B pre-/postemergence herbicide test; type: in vivo, Digitaria sanguinalis
Method in brief: as §1

Surinam grass = test: Test B pre-/postemergence herbicide test; type: in vivo, Urochloa decumbens
Method in brief: as §1

[2] = tested on: small flower umbrella sedge; test: Test B flooded paddy test; type: in vivo, Cyperus difformis; conditions: 1000 g ai/ha, visual rating, scale 0 to 100 (0 no effect, 100 complete control), 13 to 15 days
Method in brief: (§3)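 Paddy species grown to the 2-leaf stage under flooding; blackgrass sprayed postemergence at 2–18 cm (1- to 4-leaf stage). Plants kept in a greenhouse for 13 to 15 days, then visually rated against controls on 0 (no effect) to 100 (complete control).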

morningglory = test: Test B pre-/postemergence herbicide test; type: in vivo, Ipomoea coccinea
Method in brief: (§4)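 Test chemicals in a non-phytotoxic solvent mixture with surfactant were applied preemergence to seeded species and postemergence to plants 2-18 cm tall (1- to 4-leaf stage); rice and barnyardgrass were also tested in a flooded paddy at the 2-leaf stage. Visual rating versus controls after 13-15 days in greenhouse, scale 0 (no effect) to 100 (complete control).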

barnyardgrass [3] = test: Test B flooded paddy test; type: in vivo, Echinochloa crus-galli; conditions: 1000 g ai/ha, visual rating, scale 0 to 100 (0 no effect, 100 complete control), 13 to 15 days
Method in brief: as §3

barnyardgrass [4] = test: Test B pre-/postemergence herbicide test; type: in vivo, Echinochloa crus-galli
Method in brief: as §4

giant foxtail = test: Test B pre-/postemergence herbicide test; type: in vivo, Setaria faberi
Method in brief: as §1

cocklebur = test: Test B pre-/postemergence herbicide test; type: in vivo, Xanthium strumarium
Method in brief: as §4

ducksalad = test: Test B flooded paddy test; type: in vivo, Heteranthera limosa; conditions: 1000 g ai/ha, visual rating, scale 0 to 100 (0 no effect, 100 complete control), 13 to 15 days
Method in brief: as §3

pigweed = test: Test B pre-/postemergence herbicide test; type: in vivo, Amaranthus retroflexus
Method in brief: as §1

velvetleaf = test: Test B pre-/postemergence herbicide test; type: in vivo, Abutilon theophrasti
Method in brief: as §1

blackgrass = test: Test B postemergence herbicide test; type: in vivo, Alopecurus myosuroides; conditions: scale 0 (no effect) to 100 (complete control)
Method in brief: as §3

corn = test: Test B pre-/postemergence herbicide test; type: in vivo, Zea mays
Method in brief: as §1

rice [5] = test: Test B flooded paddy test; type: in vivo, Oryza sativa; conditions: 1000 g ai/ha, visual rating, scale 0 to 100 (0 no effect, 100 complete control), 13 to 15 days
Method in brief: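 Treated at 2-leaf (paddy) or 1–4-leaf, 2–18 cm (postemergence); greenhouse 13–15 d; visual score vs control, 0 none to 100 complete control; dash = not tested.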

[6] = Postemergence, 500 g ai/ha, visual rating after 13 to 15 days, scale 0 (no effect) to 100 (complete control)
[7] = postemergence, 125 g ai/ha, visual rating, scale 0 (no effect) to 100 (complete control)
[8] = preemergence, 125 g ai/ha, 0 to 100 scale, 0 is no effect, 100 is complete control
[9] = Postemergence, 500 g ai/ha, visual rating after 13 to 15 days
[10] = postemergence, 125 g ai/ha, visual rating
[11] = Preemergence, 500 g ai/ha, scale 0 to 100

**Q.** With CCNC(=O)c1cc(NC(=O)c2cc(C(C)(C)C)nn2CC)ccc1C [Compound 68] as the compound, how does the “Plant response rating, Lambsquarters” value (lambsquarters; [6]) read?
**A.** 10

**Q.** What about the “Lambsquarters plant response rating” value (lambsquarters; [7]) of the same compound?
**A.** 0

**Q.** And the “Plant response rating, Lambsquarters” value (lambsquarters; [8])?
**A.** 20

**Q.** What about the “Plant response rating, Rice” value (rice [1]) of the same compound?
**A.** 0

**Q.** And the “Plant response rating, Wheat” value (wheat; [9])?
**A.** 0

**Q.** What about the “Wheat plant response rating” value (wheat; [10]) of the same compound?
**A.** 0

**Q.** What about the “Plant response rating, Oat, Wild” value (wild oat; [9]) of the same compound?
**A.** 20

**Q.** What about the “Oat, Wild plant response rating” value (wild oat; [10]) of the same compound?
**A.** 10

**Q.** And the “Plant response rating, Crabgrass, Large” value (large crabgrass; [6])?
**A.** 0

**Q.** What about the “Crabgrass, Large plant response rating” value (large crabgrass; [11]) of the same compound?
**A.** 0

**Q.** What about the “Crabgrass, Large plant response rating” value (large crabgrass; [7]) of the same compound?
**A.** 0

**Q.** What about the “Plant response rating, Crabgrass, Large” value (large crabgrass; [8]) of the same compound?
**A.** 0

**Q.** What about the “Plant response rating, Surinam Grass” value (Surinam grass; [6]) of the same compound?
**A.** 0

**Q.** What about the “Surinam Grass plant response rating” value (Surinam grass; [7]) of the same compound?
**A.** 0

**Q.** And the “Plant response rating, Surinam Grass” value (Surinam grass; [8])?
**A.** 0

**Q.** What about the “Sedge, Umbrella plant response rating” value [2] of the same compound?
**A.** 0

**Q.** And the “Plant response rating, Morningglory” value (morningglory; [6])?
**A.** 0

**Q.** And the “Morningglory plant response rating” value (morningglory; [7])?
**A.** 0

**Q.** And the “Plant response rating, Morningglory” value (morningglory; [8])?
**A.** 20

**Q.** And the “Barnyardgrass plant response rating” value (barnyardgrass [3])?
**A.** 0

**Q.** And the “Plant response rating, Barnyardgrass” value (barnyardgrass [4]; [6])?
**A.** 0

**Q.** And the “Barnyardgrass plant response rating” value (barnyardgrass [4]; [11])?
**A.** 10

**Q.** What about the “Barnyardgrass plant response rating” value (barnyardgrass [4]; [7]) of the same compound?
**A.** 0

**Q.** What about the “Plant response rating, Barnyardgrass” value (barnyardgrass [4]; [8]) of the same compound?
**A.** 0

**Q.** What about the “Plant response rating, Foxtail, Giant” value (giant foxtail; [6]) of the same compound?
**A.** 0

**Q.** And the “Foxtail, Giant plant response rating” value (giant foxtail; [11])?
**A.** 0

**Q.** What about the “Foxtail, Giant plant response rating” value (giant foxtail; [7]) of the same compound?
**A.** 0

**Q.** And the “Plant response rating, Foxtail, Giant” value (giant foxtail; [8])?
**A.** 0

**Q.** What about the “Plant response rating, Cocklebur” value (cocklebur; [6]) of the same compound?
**A.** 10

**Q.** What about the “Cocklebur plant response rating” value (cocklebur; [11]) of the same compound?
**A.** 0

**Q.** And the “Cocklebur plant response rating” value (cocklebur; [7])?
**A.** 10

**Q.** And the “Plant response rating, Cocklebur” value (cocklebur; [8])?
**A.** 0

**Q.** What about the “Ducksalad plant response rating” value (ducksalad) of the same compound?
**A.** 0

**Q.** And the “Plant response rating, Pigweed” value (pigweed; [6])?
**A.** 30

**Q.** What about the “Pigweed plant response rating” value (pigweed; [7]) of the same compound?
**A.** 10

**Q.** And the “Plant response rating, Pigweed” value (pigweed; [8])?
**A.** 70

**Q.** What about the “Plant response rating, Velvetleaf” value (velvetleaf; [6]) of the same compound?
**A.** 0

**Q.** What about the “Velvetleaf plant response rating” value (velvetleaf; [7]) of the same compound?
**A.** 0

**Q.** What about the “Plant response rating, Velvetleaf” value (velvetleaf; [8]) of the same compound?
**A.** 0

**Q.** And the “Plant response rating, Blackgrass” value (blackgrass; [9])?
**A.** 20

**Q.** What about the “Blackgrass plant response rating” value (blackgrass; [10]) of the same compound?
**A.** 10

**Q.** What about the “Plant response rating, Corn” value (corn; [6]) of the same compound?
**A.** 0

**Q.** And the “Corn plant response rating” value (corn; [11])?
**A.** 0

**Q.** And the “Corn plant response rating” value (corn; [7])?
**A.** 0

**Q.** What about the “Plant response rating, Corn” value (corn; [8]) of the same compound?
**A.** 0

**Q.** What about the “Rice plant response rating” value (rice [5]) of the same compound?
**A.** 0
